Results: article doi:10.1101/203372v2 (biorxiv, 2017)

Target: T1, GST-HDAC6, human, recombinant (recombinant HDAC6 WT) (Homo sapiens, UniProt Q9UBN7)
T1 sequence (Q9UBN7 1-1215): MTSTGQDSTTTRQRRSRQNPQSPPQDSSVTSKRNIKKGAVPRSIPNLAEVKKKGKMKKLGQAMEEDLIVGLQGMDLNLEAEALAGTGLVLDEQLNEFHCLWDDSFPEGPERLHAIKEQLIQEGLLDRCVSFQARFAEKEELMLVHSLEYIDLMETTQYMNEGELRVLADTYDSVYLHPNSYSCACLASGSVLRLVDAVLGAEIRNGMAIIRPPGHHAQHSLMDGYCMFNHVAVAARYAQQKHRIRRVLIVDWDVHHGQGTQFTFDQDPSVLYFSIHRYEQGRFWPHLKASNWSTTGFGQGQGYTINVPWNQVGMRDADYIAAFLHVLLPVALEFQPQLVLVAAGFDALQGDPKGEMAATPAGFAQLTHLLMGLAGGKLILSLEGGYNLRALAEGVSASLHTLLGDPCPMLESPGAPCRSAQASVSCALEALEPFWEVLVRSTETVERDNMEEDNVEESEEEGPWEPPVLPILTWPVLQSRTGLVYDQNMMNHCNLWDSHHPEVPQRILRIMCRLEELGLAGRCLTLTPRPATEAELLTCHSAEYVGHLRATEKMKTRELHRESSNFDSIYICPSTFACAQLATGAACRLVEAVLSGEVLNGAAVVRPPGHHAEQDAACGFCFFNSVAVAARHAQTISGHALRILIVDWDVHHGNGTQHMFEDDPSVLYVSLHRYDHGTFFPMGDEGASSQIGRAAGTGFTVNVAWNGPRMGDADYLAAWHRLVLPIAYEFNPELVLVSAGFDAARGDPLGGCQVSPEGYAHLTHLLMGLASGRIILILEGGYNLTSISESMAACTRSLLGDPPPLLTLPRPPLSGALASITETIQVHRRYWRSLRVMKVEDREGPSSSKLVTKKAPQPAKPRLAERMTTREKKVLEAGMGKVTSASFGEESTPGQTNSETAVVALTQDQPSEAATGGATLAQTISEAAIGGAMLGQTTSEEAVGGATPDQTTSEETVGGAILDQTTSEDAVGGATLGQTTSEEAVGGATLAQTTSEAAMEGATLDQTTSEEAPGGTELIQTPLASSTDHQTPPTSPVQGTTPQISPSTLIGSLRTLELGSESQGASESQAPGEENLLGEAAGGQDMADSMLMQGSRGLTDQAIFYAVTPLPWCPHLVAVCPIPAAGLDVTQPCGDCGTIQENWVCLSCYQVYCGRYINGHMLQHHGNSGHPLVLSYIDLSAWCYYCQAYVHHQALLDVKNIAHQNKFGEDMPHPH
Experiment: ELISA PPI competition, HDAC6 binding to immobilised His6-ubiquitin

- IC50: 78 µM
SMILES: Cc1ccccc1OCCCn1cc(C=C2C(=N)N3N=CSC3=NC2=O)c2ccccc21 [compound 16]
